Measured values: the supplement of paper PMC11451515

Tested on: NOMO1
Test: cell viability relative to DMSO control; higher = less cytotoxic
Conditions: 48 h
How it was run: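 Library compounds in DMSO were pin-dosed into 1536-well plates (5 μl) holding NOMO1 or SEM (500 cells/well) or P12-Ichikawa (1000 cells/well) leukemia cells, across an 11-point threefold series of 47 μM to 0.79 nM. Each cell line had been adapted for at least four passages in each medium. CellTiter-Glo One luminescence was read after 48 h at 37°C. Viability is the per-plate percentage relative to DMSO wells, with cell-free wells as background.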

[1] = HPLM + 10% dialyzed FBS, 0.000781 µM
[2] = HPLM + 10% dialyzed FBS, 0.00234 µM
[3] = HPLM + 10% dialyzed FBS, 0.00702 µM
[4] = HPLM + 10% dialyzed FBS, 0.0211 µM
[5] = HPLM + 10% dialyzed FBS, 0.0632 µM
[6] = HPLM + 10% dialyzed FBS, 0.19 µM
[7] = HPLM + 10% dialyzed FBS, 0.569 µM
[8] = HPLM + 10% dialyzed FBS, 1.71 µM
[9] = HPLM + 10% dialyzed FBS, 5.12 µM
[10] = HPLM + 10% dialyzed FBS, 15.4 µM
[11] = HPLM + 10% dialyzed FBS, 46.1 µM
[12] = RPMI 5 mM glucose + 10% FBS, 0.000781 µM
[13] = RPMI 5 mM glucose + 10% FBS, 0.00234 µM
[14] = RPMI 5 mM glucose + 10% FBS, 0.00702 µM
[15] = RPMI 5 mM glucose + 10% FBS, 0.0211 µM
[16] = RPMI 5 mM glucose + 10% FBS, 0.0632 µM
[17] = RPMI 5 mM glucose + 10% FBS, 0.19 µM
[18] = RPMI 5 mM glucose + 10% FBS, 0.569 µM
[19] = RPMI 5 mM glucose + 10% FBS, 1.71 µM
[20] = RPMI 5 mM glucose + 10% FBS, 5.12 µM
[21] = RPMI 5 mM glucose + 10% FBS, 15.4 µM
[22] = RPMI 5 mM glucose + 10% FBS, 46.1 µM
[23] = RPMI 5 mM glucose + 10% dialyzed FBS, 0.000781 µM
[24] = RPMI 5 mM glucose + 10% dialyzed FBS, 0.00234 µM
[25] = RPMI 5 mM glucose + 10% dialyzed FBS, 0.00702 µM
[26] = RPMI 5 mM glucose + 10% dialyzed FBS, 0.0211 µM
[27] = RPMI 5 mM glucose + 10% dialyzed FBS, 0.0632 µM
[28] = RPMI 5 mM glucose + 10% dialyzed FBS, 0.19 µM
[29] = RPMI 5 mM glucose + 10% dialyzed FBS, 0.569 µM
[30] = RPMI 5 mM glucose + 10% dialyzed FBS, 1.71 µM
[31] = RPMI 5 mM glucose + 10% dialyzed FBS, 5.12 µM
[32] = RPMI 5 mM glucose + 10% dialyzed FBS, 15.4 µM
[33] = RPMI 5 mM glucose + 10% dialyzed FBS, 46.1 µM

Row | SMILES | cell viability [1] [%] | cell viability [2] [%] | cell viability [3] [%] | cell viability [4] [%] | cell viability [5] [%] | cell viability [6] [%] | cell viability [7] [%] | cell viability [8] [%] | cell viability [9] [%] | cell viability [10] [%] | cell viability [11] [%] | cell viability [12] [%] | cell viability [13] [%] | cell viability [14] [%] | cell viability [15] [%] | cell viability [16] [%] | cell viability [17] [%] | cell viability [18] [%] | cell viability [19] [%] | cell viability [20] [%] | cell viability [21] [%] | cell viability [22] [%] | cell viability [23] [%] | cell viability [24] [%] | cell viability [25] [%] | cell viability [26] [%] | cell viability [27] [%] | cell viability [28] [%] | cell viability [29] [%] | cell viability [30] [%] | cell viability [31] [%] | cell viability [32] [%] | cell viability [33] [%]
1 | CC[C@H](C)C(=O)O[C@H]1C[C@H](O)\C=C2\C=C/[C@H](C)[C@H](CC[C@@H](O)C[C@@H](O)CC(O)=O)[C@@H]12 | 123 | 116 | 118 | 119 | 125 | 123 | 110 | 101 | 103 | 104 | 84.1 | 114 | 111 | 118 | 106 | 117 | 126 | 116 | 116 | 104 | 105 | 102 | 105 | 110 | 117 | 104 | 101 | 110 | 112 | 101 | 103 | 107 | 99
2 | COC(=O)C1C2CC3c4[nH]c5cc(OC)ccc5c4CCN3CC2CC(OC(=O)c2cc(OC)c(OC)c(OC)c2)C1OC (stereo not given) | 108 | 123 | 101 | 125 | 119 | 112 | 115 | 106 | 112 | 102 | 81.3 | 106 | 94.6 | 107 | 103 | 95.2 | 104 | 93.4 | 94.1 | 96.4 | 95.7 | 90.2 | 105 | 101 | 103 | 93.8 | 92.1 | 98.2 | 98.5 | 105 | 102 | 112 | 82.9
3 | CN[C@@H]1Cc2cccc3[nH]c(=O)n(c23)C1 |  |  |  |  |  |  |  |  |  |  |  | 112 | 113 | 118 | 110 | 107 | 105 | 108 | 106 | 105 | 102 | 103 |  |  |  |  |  |  |  |  |  |  | 
4 | CN[C@@H](C)C(=O)N[C@H]1CN(C(=O)CC(C)C)CC[C@H]2CC[C@@H](C(=O)NC(c3ccccc3)c3ccccc3)N2C1=O | 96.2 | 118 | 112 | 119 | 82.9 | 85.2 | 74 | 54.5 | 17.4 | 13.9 | 11.3 | 102 | 105 | 104 | 100 | 96.9 | 91.6 | 95.8 | 37 | 10.6 | 10.2 | 6.19 | 85.3 | 98.6 | 92.6 | 94.1 | 121 | 91.8 | 97.1 | 90.3 | 17.7 | 13.9 | 9.5
